{
  "source": "patent US20190321365A1",
  "about": "“Maintenance Therapy for the Treatment of Cancer” (Aslan Pharmaceuticals Pte. Ltd., priority 2016, published 2019)",
  "key": {"breast cancer": {"test_system": "breast cancer", "details": "cited from earlier work"}, "stage IV bladder cancer": {"test_system": "stage IV bladder cancer", "assay": "Example 6: trial ASLAN001-002SG, maintenance monotherapy, patient with stage IV bladder cancer", "type": "in vivo, human", "from_the_text": "A person (ASLAN001-002SG DNT/0012) had the past history of type 2 diabetes mellitus, atrial fibrillation, hypertension, hyperlipidemia, and grade 1 hearing loss. They were diagnosed with stage IV bladder cancer and received radical cystoprostatectomy on 13 Dec. 2013. They also received cisplatin based concurrent radiotherapy on 20 Feb. 2014, and gemcitabine plus cisplatin from 10 Apr. to 8 May 2015.\nThey joined the clinical trial, ASLAN001-002SG. The study treatment of bi-weekly FOLFOX plus continuous 300 mg varlitinib per oral twice a day started on 24 Aug. 2015. After 9 cycles (14 days/cycle) of combined regimen, they continued varlitinib monotherapy. The total treatment duration of varlitinib maintenance therapy was 140 days. […] The study treatment was discontinued due to disease progression."}, "[1]": {"assay": "General tolerability in patients", "type": "in vivo, human", "details": "in comparison to many anti-cancer treatments"}, "stage IV gastric cancer [2]": {"test_system": "stage IV gastric cancer", "assay": "Example 7: trial ASLAN001-002, maintenance monotherapy, patient with stage IV gastric cancer", "type": "in vivo, human", "method": "A person (ASLAN001-002 2B302) had the underlying disease of gastro-esophageal reflux disease. They were diagnosed with stage IV gastric cancer in Jul. 2016.\nThey joined the clinical trial, ASLAN001-002. The study treatment of cisplatin/capecitabine plus continuous 300 mg varlitinib per oral twice a day started on 6 Sep. 2016. After 6 cycles (21 days/cycle) of combined regimen, they continue varlitinib monotherapy. The total treatment duration of varlitinib maintenance therapy was 134 days. […] The study treatment was discontinued due to disease progression."}, "[3]": {"test_system": "intrahepatic cholangiocarcinoma", "assay": "Example 3: trial ASLAN001-002SG, maintenance monotherapy, patient with intrahepatic cholangiocarcinoma", "type": "in vivo, human", "from_the_text": "A person ([…]/0013) had the past history of meningioma post left craniotomy for tumor excision in 2007. They were diagnosed with intrahepatic cholangiocarcinoma in July 2013, and received left hemihepatectomy followed by adjuvant chemotherapy (gemcitabine plus cisplatin) from 14 Aug. 2013 to 8 Jan. 2014. Disease relapse was found in […]. Thus, they received systemic treatment with gemcitabine plus cisplatin from 13th May to 1 Jul. 2015. They joined the clinical trial, […]. The study treatment of bi-weekly FOLFOX plus continuous 400 mg varlitinib per oral twice a day started on 4 Aug. 2015. […] 2015, varlitinib was interrupted and reduced to 300 mg twice a day in combination with FOLFOX. After 9 cycles (14 days/cycle) of combined regimen, they continue varlitinib monotherapy."}, "[4]": {"test_system": "choloangiocarcinoma (CCA)", "assay": "Example 2: maintenance monotherapy, patient with cholangiocarcinoma", "type": "in vivo, human", "method": "A person with choloangiocarcinoma (CCA), namely […] adenocarcinoma had already received surgery, was administered varlitinib at a dose of 400 mg bi-daily in combination with doublet chemotherapy for six 28-day cycles. Varlitinib was then used as maintenance therapy as monotherapy for 10 additional cycles, of 28 days of treatment."}, "[5]": {"test_system": "stage IV cholangiocarcinoma", "assay": "Example 4: trial ASLAN001-002, maintenance monotherapy, patient with stage IV cholangiocarcinoma", "type": "in vivo, human", "method": "A person (ASLAN001-002 2A101) had the past history of type 2 diabetes mellitus and hypertension for more than 10 years. They were diagnosed with stage IV cholangiocarcinoma in November 2014.\nThey joined the clinical trial, ASLAN001-002. The study treatment of cisplatin/5-FU plus continuous 400 mg varlitinib per oral twice a day started on 27 Jan. 2015.\nAfter 6 cycles (28 days/cycle) of combined regimen, […] continued 400 mg varlitinib monotherapy for another 99 days. […] The total treatment duration of varlitinib maintenance therapy was 287 days.\nThe study treatment was discontinued due to disease progression."}, "[6]": {"test_system": "squamous cell carcinoma of the cervix", "assay": "Example 1: maintenance therapy, patient with squamous cell carcinoma of the cervix", "type": "in vivo, human", "details": "300 mg bi-daily; one patient, progressing after radiation and chemotherapy", "method": "A patient diagnosed with squamous cell carcinoma of the cervix was initially treated with radiation therapy and concurrent weekly cisplatin. They had recurring disease the following year. They subsequently received a number of lines of chemotherapy, including topotecan/cisplating and ifosfamide. The cancer continued to progress.\nThey received 300 mg bi-daily of varlitinib for 6.5 years.\nThe patient received varlitinib maintenance therapy for about 6.5 years before developing transitional cell carcinoma of the bladder. It is likely that this bladder carcinoma was a result receiving pelvic radiation and/or treatment with ifsoamide."}, "stage IV gastric cancer [7]": {"test_system": "stage IV gastric cancer", "assay": "Example 5: trial ASLAN001-002, maintenance monotherapy, patient with stage IV gastric cancer", "type": "in vivo, human", "method": "A person (ASLAN001-002 2A102) had the past history of hypertension for more than 5 years. They were diagnosed with stage IV gastric cancer in April 2015.\nThey joined the clinical trial, ASLAN001-002. The study treatment of cisplatin/5-FUplus continuous 400 mg varlitinib per oral twice a day started on 12 May 2015. After 6 cycles (28 days/cycle) of combined regimen, they continued 400 mg varlitinib monotherapy for another 112 days. […] The total treatment duration of varlitinib maintenance therapy was 243 days. […] The study treatment was discontinued due to disease progression."}, "[8]": {"test_system": "gastric tumors co-expressing EGFR and HER2 or HER2 amplified", "assay": "Phase I monotherapy trial in gastric cancer patients, tumor biopsies by immunohistochemistry", "type": "in vivo, human", "details": "23 patients, 500 mg orally twice daily, monotherapy for 28 days; biopsies before and after treatment", "method": "It has been tested as a monotherapy in phase I clinical trials of gastric cancer patients. 23 patients, who had previously failed on one or more rounds of chemotherapy and, where eligible, trastuzumab, each received 500 mg of ASLAN001 orally twice daily as monotherapy for 28 days. Tumor biopsies taken before and after treatment were analysed using immunohistochemistry."}, "[9]": {"details": "women who didn't take hormone replacement therapy"}},
  "note": "Like-named read-outs stand apart in the source and are kept apart here.",
  "data": [
    {"compound": "CC/C(=C(\\c1ccccc1)c1ccc(OCCN(C)C)cc1)c1ccccc1", "note": "[tamoxifen]", "values": [
      {"measurement": "reduction of the risk of breast cancer", "setting": "breast cancer; women at high risk, long-term study", "value": 29, "unit": "%"},
      {"measurement": "effect on the risk of estrogen-receptor-negative breast cancer", "setting": "breast cancer; women at high risk", "value": "didn't reduce the risk"},
      {"measurement": "reduction of the risk of estrogen-receptor-positive breast cancer", "setting": "breast cancer; women at high risk", "value": 35, "unit": "%"},
      {"measurement": "reduction of the risk of breast cancer", "setting": "breast cancer; [9]", "value": 38, "unit": "%"},
      {"measurement": "reduction of the risk of estrogen-receptor-positive disease", "setting": "breast cancer; [9]", "value": 45, "unit": "%"}
    ]},
    {"compound": "C[C@@H]1COC(Nc2ccc3ncnc(Nc4ccc(OCc5nccs5)c(Cl)c4)c3c2)=N1", "note": "[varlitinib, (R)-N4-[3-Chloro-4-(thiazol-2-ylmethoxy)-phenyl]-N6-(4-methyl-4,5,-dihydro-oxazol-2-yl)-quinazoline-4,6-diamine]", "values": [
      {"measurement": "best tumor response", "setting": "stage IV bladder cancer; human, in vivo", "value": "stable disease"},
      {"measurement": "total treatment duration of maintenance therapy", "setting": "stage IV bladder cancer; person, monotherapy after 9 cycles of FOLFOX plus 300 mg twice a day, discontinued due to disease progression", "value": 140, "unit": "days"},
      {"measurement": "tolerability", "setting": "[1]", "value": "very well tolerated"},
      {"measurement": "best tumor response", "setting": "stage IV gastric cancer [2]; human, in vivo", "value": "stable disease"},
      {"measurement": "total treatment duration of maintenance therapy", "setting": "stage IV gastric cancer [2]; person, monotherapy after 6 cycles of cisplatin/capecitabine plus 300 mg twice a day, discontinued due to disease progression", "value": 134, "unit": "days"},
      {"measurement": "adverse event leading to interruption and dose reduction", "setting": "[3]; 400 mg per oral twice a day in combination with bi-weekly FOLFOX", "value": "grade 3 hyperbilirubinemia"},
      {"measurement": "tumor status", "setting": "[3]; after 504 days of maintenance treatment", "value": "partial response"},
      {"measurement": "duration of maintenance treatment to date", "setting": "[3]; person, monotherapy after 9 cycles with FOLFOX, 300 mg twice a day, ongoing", "value": 504, "unit": "days"},
      {"measurement": "adverse event leading to dose reduction", "setting": "[4]; monotherapy 400 mg bi-daily, at cycle 10 day 15", "value": "increase in G3 creatinine levels"},
      {"measurement": "target lesion during maintenance therapy", "setting": "[4]; period of 10 cycles of maintenance therapy", "value": "no target lesion was observed"},
      {"measurement": "disease status during maintenance therapy", "setting": "[4]; person, stage VI adenocarcinoma, monotherapy 400 then 300 mg bi-daily, 10 cycles of 28 days, after six cycles with doublet chemotherapy", "value": "stable disease"},
      {"measurement": "adverse event leading to dose tapering", "setting": "[5]; after 99 days of 400 mg monotherapy", "value": "creatinine increase"},
      {"measurement": "best tumor response", "setting": "[5]; non-target disease", "value": "non-complete response/non-progressive disease"},
      {"measurement": "total treatment duration of maintenance therapy", "setting": "[5]; person, 400 mg monotherapy, then 300 mg twice a day 1 week on and 1 week off, discontinued due to disease progression", "value": 287, "unit": "days"},
      {"measurement": "duration of maintenance therapy before developing transitional cell carcinoma of the bladder", "setting": "[6]", "value": "about 6.5 years"},
      {"measurement": "adverse event leading to dose tapering", "setting": "stage IV gastric cancer [7]; after 112 days of 400 mg monotherapy", "value": "creatinine increase"},
      {"measurement": "best tumor response", "setting": "stage IV gastric cancer [7]; human, in vivo", "value": "partial response"},
      {"measurement": "total treatment duration of maintenance therapy", "setting": "stage IV gastric cancer [7]; person, 400 mg monotherapy, then 300 mg twice a day, discontinued due to disease progression", "value": 243, "unit": "days"},
      {"measurement": "signs of clinical activity in tumor biopsies", "setting": "[8]", "value": "downregulation of signalling pathways responsible for cell proliferation, and a reduction in cell survival and cell proliferation"}
    ]}
  ]
}
